# Results reported in article PMC12118597 (Science Advances, 2025).
# Where “and” joins values, the source holds several entries; their conditions need not be identical. Identical values can stand only once.
# Target: T1, SARS-CoV-2 NSP3 macrodomain (Mac1) (Severe acute respiratory syndrome coronavirus 2, UniProt P0DTD1)
# Experiment: biochemical
# Type: binding
# Conditions: not given
row,Structure (SMILES),Ligand efficiency (binding enery per heavy atom)
1,OCC(Cc1ccccc1)Nc1ncnc2[nH]ccc12 (stereo not shown) [AVI-313],0.27
2,CC(CNC(=O)c1ccc2c(c1)CCC(=O)N2)C(=O)O (stereo not shown) [AVI-328],0.25

# Same assay, conditions: HTRF
row,Structure (SMILES),fold decrease in affinity relative to AVI-607 [fold]
1,OCC1CCCN1c1ncnc2[nH]ccc12 (stereo not shown) [AVI-3685],> 20

# Same assay, conditions: HTRF binding curve, SARS-CoV-2 Mac1
row,Structure (SMILES),Hill slope
1,"CC(C)(O)[C@@H]1CCCN1c1ncnc2[nH]ccc12 [AVI-1445, (S)-2-(1-(7H-pyrrolo[2,3-d]pyrimidin-4-yl)pyrrolidin-2-yl)propan-2-ol]",1.1
2,"Nc1ncnc2c1ncn2[C@@H]1O[C@H](COP(=O)(O)OP(=O)(O)OC[C@H]2O[C@@H](O)[C@H](O)[C@@H]2O)[C@@H](O)[C@H]1O.[Na].[Na] [ADP-ribose, reference compound]",1.1
3,"Cc1c[nH]c2ncnc(NCC3(O)CCC3)c12 [AVI-3571, 1-(((5-methyl-7H-pyrrolo[2,3-d]pyrimidin-4-yl)amino)methyl)cyclobutan-1-ol]",1.0

# Same assay, conditions: SARS CoV-2 macrodomain HTRF assay
Structure (SMILES),Ki [µM],Ligand efficiency (binding enery per heavy atom)
OCC1C2CCC(C2)N1c1ncnc2[nH]ccc12 (stereo not shown) [AVI-3713],25,0.35
O=C(O)C(F)(F)F.OCC1(Nc2ncnc3[nH]ccc23)CCC1 [AVI-3670],36,0.38
CC(C)(O)C1N(c2ncnc3[nH]ccc23)CCC1(C)C (stereo not shown) [AVI-4126],93,0.28
"CC(C)(O)[C@@H]1CCCN1c1ncnc2[nH]ccc12 [AVI-1445, (S)-2-(1-(7H-pyrrolo[2,3-d]pyrimidin-4-yl)pyrrolidin-2-yl)propan-2-ol]",100,0.31
"Cc1c[nH]c2ncnc(NCC3(O)CCC3)c12 [AVI-3571, 1-(((5-methyl-7H-pyrrolo[2,3-d]pyrimidin-4-yl)amino)methyl)cyclobutan-1-ol]",14,0.39

# Same assay, conditions: SARS CoV-2 macrodomain HTRF assay, dose-response
row,Structure (SMILES),Hill slope
1,"CC(C)(O)[C@@H]1CCCN1c1ncnc2[nH]ccc12 [AVI-1445, (S)-2-(1-(7H-pyrrolo[2,3-d]pyrimidin-4-yl)pyrrolidin-2-yl)propan-2-ol]",1.6
2,"Cc1c[nH]c2ncnc(NCC3(O)CCC3)c12 [AVI-3571, 1-(((5-methyl-7H-pyrrolo[2,3-d]pyrimidin-4-yl)amino)methyl)cyclobutan-1-ol]",1.0

# Same assay, conditions: SARS CoV-2 macrodomain HTRF assay, dose-response; read-out: IC50
row,Structure (SMILES),IC50 [µM]
1,OCC1C2CCC(C2)N1c1ncnc2[nH]ccc12 (stereo not shown) [AVI-3713],27
2,O=C(O)C(F)(F)F.OCC1(Nc2ncnc3[nH]ccc23)CCC1 [AVI-3670],39
3,CC(C)(O)C1N(c2ncnc3[nH]ccc23)CCC1(C)C (stereo not shown) [AVI-4126],100
4,"Cc1c[nH]c2ncnc(NCC3(O)CCC3)c12 [AVI-3571, 1-(((5-methyl-7H-pyrrolo[2,3-d]pyrimidin-4-yl)amino)methyl)cyclobutan-1-ol]",15

# Same assay, conditions: SARS CoV-2 macrodomain HTRF assay, single dose concentration 200 μM; read-out: Average % competition
row,Structure (SMILES),inhibition at 200 µM [%]
1,OCC1CCCN1c1ncnc2[nH]ccc12 (stereo not shown) [AVI-3685],47
2,"CC(C)(O)[C@@H]1CCCN1c1ncnc2[nH]ccc12 [AVI-1445, (S)-2-(1-(7H-pyrrolo[2,3-d]pyrimidin-4-yl)pyrrolidin-2-yl)propan-2-ol]",75

# Same assay, conditions: compound at 200 μM; mean of three to four technical replicates; read-out: % competition at 200 μM (preliminary HTRF screen)
row,Structure (SMILES),inhibition at 200 µM [%]
1,OCC1CCCN1c1ncnc2[nH]ccc12 (stereo not shown) [AVI-3685],48
2,"CC(C)(O)[C@@H]1CCCN1c1ncnc2[nH]ccc12 [AVI-1445, (S)-2-(1-(7H-pyrrolo[2,3-d]pyrimidin-4-yl)pyrrolidin-2-yl)propan-2-ol]",75

# Same assay, conditions: dose-response
row,Structure (SMILES),Ki [µM]
1,OCC(Cc1ccccc1)Nc1ncnc2[nH]ccc12 (stereo not shown) [AVI-313],120
2,CC(CNC(=O)c1ccc2c(c1)CCC(=O)N2)C(=O)O (stereo not shown) [AVI-328],210

# Same assay, conditions: read-out: IC50 (confirmatory HTRF dose-response screen)
row,Structure (SMILES),IC50 [µM]
1,"CC(C)(O)[C@@H]1CCCN1c1ncnc2[nH]ccc12 [AVI-1445, (S)-2-(1-(7H-pyrrolo[2,3-d]pyrimidin-4-yl)pyrrolidin-2-yl)propan-2-ol]",110
2,OCC(Cc1ccccc1)Nc1ncnc2[nH]ccc12 (stereo not shown) [AVI-313],130
3,CC(CNC(=O)c1ccc2c(c1)CCC(=O)N2)C(=O)O (stereo not shown) [AVI-328],220

# Target: T1, SARS-CoV-2 NSP3 macrodomain (Mac1)
# Experiment: not given
# Type: binding
# Conditions: not given
row,Structure (SMILES),Occupancy difference (refined_occupancy - 2*(1-BDC))
1,"CC(C)(O)[C@@H]1CCCN1c1ncnc2[nH]ccc12 [AVI-1445, (S)-2-(1-(7H-pyrrolo[2,3-d]pyrimidin-4-yl)pyrrolidin-2-yl)propan-2-ol]",0
2,"Cc1c[nH]c2ncnc(NCC3(O)CCC3)c12 [AVI-3571, 1-(((5-methyl-7H-pyrrolo[2,3-d]pyrimidin-4-yl)amino)methyl)cyclobutan-1-ol]",0

# Same assay, conditions: PanDDA background density correction factor
row,Structure (SMILES),1-BDC
1,"CC(C)(O)[C@@H]1CCCN1c1ncnc2[nH]ccc12 [AVI-1445, (S)-2-(1-(7H-pyrrolo[2,3-d]pyrimidin-4-yl)pyrrolidin-2-yl)propan-2-ol]",0.12
2,"Cc1c[nH]c2ncnc(NCC3(O)CCC3)c12 [AVI-3571, 1-(((5-methyl-7H-pyrrolo[2,3-d]pyrimidin-4-yl)amino)methyl)cyclobutan-1-ol]",0.15

# Same assay, conditions: TRUE = crystal structure with ligand obtained
row,Structure (SMILES),X-ray crystal structure
1,"Nc1ncnc2c1ncn2[C@@H]1O[C@H](COP(=O)(O)OP(=O)(O)OC[C@H]2O[C@@H](O)[C@H](O)[C@@H]2O)[C@@H](O)[C@H]1O.[Na].[Na] [ADP-ribose, reference compound]",TRUE
2,"Cc1c[nH]c2ncnc(NCC3(O)CCC3)c12 [AVI-3571, 1-(((5-methyl-7H-pyrrolo[2,3-d]pyrimidin-4-yl)amino)methyl)cyclobutan-1-ol]",TRUE

# Same assay, conditions: crystal soak 10 mM, P43 crystal form
row,Structure (SMILES),"PanDDA run, overall: Hit"
1,"CC(C)(O)[C@@H]1CCCN1c1ncnc2[nH]ccc12 [AVI-1445, (S)-2-(1-(7H-pyrrolo[2,3-d]pyrimidin-4-yl)pyrrolidin-2-yl)propan-2-ol]",TRUE
2,"Cc1c[nH]c2ncnc(NCC3(O)CCC3)c12 [AVI-3571, 1-(((5-methyl-7H-pyrrolo[2,3-d]pyrimidin-4-yl)amino)methyl)cyclobutan-1-ol]",TRUE

# Same assay, conditions: crystal soak 10 mM; DMSO background map
Structure (SMILES),"PanDDA run, DMSO background map: 1-BDC","PanDDA run, DMSO background map: Hit"
"CC(C)(O)[C@@H]1CCCN1c1ncnc2[nH]ccc12 [AVI-1445, (S)-2-(1-(7H-pyrrolo[2,3-d]pyrimidin-4-yl)pyrrolidin-2-yl)propan-2-ol]",0.12,TRUE
"Cc1c[nH]c2ncnc(NCC3(O)CCC3)c12 [AVI-3571, 1-(((5-methyl-7H-pyrrolo[2,3-d]pyrimidin-4-yl)amino)methyl)cyclobutan-1-ol]",0.15 and 0.2,TRUE

# Same assay, conditions: crystal soak 10 mM; TFA/DMSO background map
Structure (SMILES),"PanDDA run, TFA/DMSO background map: 1-BDC","PanDDA run, TFA/DMSO background map: Hit"
O=C(O)C(F)(F)F.OCC1(Nc2ncnc3[nH]ccc23)CCC1 [AVI-3670],0.12,TRUE
"CC(C)(O)[C@@H]1CCCN1c1ncnc2[nH]ccc12 [AVI-1445, (S)-2-(1-(7H-pyrrolo[2,3-d]pyrimidin-4-yl)pyrrolidin-2-yl)propan-2-ol]",0.12,TRUE

# Same assay, conditions: ligand conformations modeled in the crystal structure
row,Structure (SMILES),Total number of conformations
1,"CC(C)(O)[C@@H]1CCCN1c1ncnc2[nH]ccc12 [AVI-1445, (S)-2-(1-(7H-pyrrolo[2,3-d]pyrimidin-4-yl)pyrrolidin-2-yl)propan-2-ol]",1
2,"Cc1c[nH]c2ncnc(NCC3(O)CCC3)c12 [AVI-3571, 1-(((5-methyl-7H-pyrrolo[2,3-d]pyrimidin-4-yl)amino)methyl)cyclobutan-1-ol]",2

# Same assay, conditions: ligand modeling, Mac1 crystal soak
row,Structure (SMILES),Number of isomers bound
1,OCC1CCCN1c1ncnc2[nH]ccc12 (stereo not shown) [AVI-3685],1
2,OCC1C2CCC(C2)N1c1ncnc2[nH]ccc12 (stereo not shown) [AVI-3713],1
3,O=C(O)C(F)(F)F.OCC1(Nc2ncnc3[nH]ccc23)CCC1 [AVI-3670],1
4,"CC(C)(O)[C@@H]1CCCN1c1ncnc2[nH]ccc12 [AVI-1445, (S)-2-(1-(7H-pyrrolo[2,3-d]pyrimidin-4-yl)pyrrolidin-2-yl)propan-2-ol]",1
5,OCC(Cc1ccccc1)Nc1ncnc2[nH]ccc12 (stereo not shown) [AVI-313],2
6,CC(CNC(=O)c1ccc2c(c1)CCC(=O)N2)C(=O)O (stereo not shown) [AVI-328],2
7,"Cc1c[nH]c2ncnc(NCC3(O)CCC3)c12 [AVI-3571, 1-(((5-methyl-7H-pyrrolo[2,3-d]pyrimidin-4-yl)amino)methyl)cyclobutan-1-ol]",1

# Same assay, conditions: ligand-bound crystal structure obtained (TRUE)
row,Structure (SMILES),X-ray crystal structure
1,"CC(C)(O)[C@@H]1CCCN1c1ncnc2[nH]ccc12 [AVI-1445, (S)-2-(1-(7H-pyrrolo[2,3-d]pyrimidin-4-yl)pyrrolidin-2-yl)propan-2-ol]",TRUE

# Same assay, conditions: occupancy estimate from PanDDA
row,Structure (SMILES),2*(1-BDC) (%)
1,"CC(C)(O)[C@@H]1CCCN1c1ncnc2[nH]ccc12 [AVI-1445, (S)-2-(1-(7H-pyrrolo[2,3-d]pyrimidin-4-yl)pyrrolidin-2-yl)propan-2-ol]",24
2,"Cc1c[nH]c2ncnc(NCC3(O)CCC3)c12 [AVI-3571, 1-(((5-methyl-7H-pyrrolo[2,3-d]pyrimidin-4-yl)amino)methyl)cyclobutan-1-ol]",30

# Same assay, conditions: refined crystallographic occupancy
row,Structure (SMILES),Refined ligand occupancy (%)
1,"CC(C)(O)[C@@H]1CCCN1c1ncnc2[nH]ccc12 [AVI-1445, (S)-2-(1-(7H-pyrrolo[2,3-d]pyrimidin-4-yl)pyrrolidin-2-yl)propan-2-ol]",24
2,"Cc1c[nH]c2ncnc(NCC3(O)CCC3)c12 [AVI-3571, 1-(((5-methyl-7H-pyrrolo[2,3-d]pyrimidin-4-yl)amino)methyl)cyclobutan-1-ol]",30

# Same assay, conditions: site occupied in X-ray crystal structure
row,Structure (SMILES),Binding site
1,"CC(C)(O)[C@@H]1CCCN1c1ncnc2[nH]ccc12 [AVI-1445, (S)-2-(1-(7H-pyrrolo[2,3-d]pyrimidin-4-yl)pyrrolidin-2-yl)propan-2-ol]",Adenosine

# Same assay, conditions: site of ligand in X-ray crystal structure
row,Structure (SMILES),Binding site
1,"Cc1c[nH]c2ncnc(NCC3(O)CCC3)c12 [AVI-3571, 1-(((5-methyl-7H-pyrrolo[2,3-d]pyrimidin-4-yl)amino)methyl)cyclobutan-1-ol]",Adenosine

# Same assay, conditions: stereoisomer(s) modeled as bound, residues 201/202/203
row,Structure (SMILES),Isomers modeled
1,OCC1C2CCC(C2)N1c1ncnc2[nH]ccc12 (stereo not shown) [AVI-3713],SSR
2,OCC(Cc1ccccc1)Nc1ncnc2[nH]ccc12 (stereo not shown) [AVI-313],"S,R"
3,CC(CNC(=O)c1ccc2c(c1)CCC(=O)N2)C(=O)O (stereo not shown) [AVI-328],"R,S"

# Same assay, conditions: stereoisomer(s)/conformations of the soaked ligand modeled in the Mac1 crystal structure
row,Structure (SMILES),Isomers modeled
1,CC(C)(O)C1N(c2ncnc3[nH]ccc23)CCC1(C)C (stereo not shown) [AVI-4126],"R,S"
